Measurements: patent publication US20030175745A1, “Peptides with growth inhibitory action” (priority 2001, published 2003)
Where a SMILES comes first, the peptide text is derived from it.

What was measured:
NIH3T3-PDGF-ββ cells = assay: Growth assay with NIH3T3-PDGF-ββ cells, cell number by PicoGreen DNA; assay type: cell-based; conditions: for inhibition compared to the base medium (BITS): Example 4 (Table 2); for % of control cell growth: 5 days, BITS medium
Method: NIH 3T3 cells transfected with PDGF-ββ (a stable cell line) were obtained from Mount Sinai School of Medicine. These cells overexpress PDGF-ββ and are activated via the PDGF-R in an autocrine fashion. Cells were grown at 37° C. in Dulbecco's Modified Eagles Medium (high glucose) (DMEM) with 10% heat-inactivated fetal calf serum (FCS) with 100 units or μg/ml penicillin/streptomycin with 750 μg/ml G418 sulfate (Geneticin) selection. Cells were incubated in an atmosphere of 5% CO2, and cultures were fed twice weekly. For subcultivation, cells were allowed to attain confluence and washed twice with PBS or Hank's balanced salt solution (minus Ca^++ and Mg^++) before addition of a trypsin/EDTA solution to dislodge the cells. Cells were split anywhere from ¼ to 1/12 into a sterile T-75 Flask depending on the time desired until confluence.
To identify peptides that inhibit cell growth in culture, candidate peptides were screened in a growth assay with NIH3T3-PDGF-ββ cells. Cells were expanded in DMEM containing G418 as described above. […] Growth medium was removed and the peptide solution added (250 μl/well). Cells were incubated for 5 days without feeding prior to testing. After this time, growth of cells treated with each peptide was compared to growth in control medium (no peptide added).
Cell number was assessed by measurement of total cellular double-stranded DNA using the PicoGreen Assay Kit (Molecular Probes, Eugene, Oreg., USA, lot #6405-1). For PicoGreen analysis, cell lysates (100 μl ) were added to 100 µl of the dye solution prepared by diluting the PicoGreen dye (1:200 in 1× TE according to the manufacturer's instructions). Plates were read after five minutes in a fluorimeter (irradiated at an excitation wavelength of 485 nm). Fluorescence emission was measured at 530 nm using a CytoFluor Series 4000 (PerSeptive Biosystems, Framingham, Mass.). For correlating DNA level to cell number, a standard curve was established for the NIH3T3-PDGF-ββ cells. For analysis, DNA absorbance/emission was compared to the absorbance/emission shown by a standard curve of DNA.

PDGF-R = conditions: in the μM range; cited from earlier work
α-type PDGF-R = α-type PDGF-R (Homo sapiens, UniProt P16234); conditions: high concentrations; cited from earlier work
PDGF β receptor = PDGF β receptor (Homo sapiens, UniProt P09619); conditions: cited from earlier work
Sequence of PDGF β receptor (P09619 33-1106): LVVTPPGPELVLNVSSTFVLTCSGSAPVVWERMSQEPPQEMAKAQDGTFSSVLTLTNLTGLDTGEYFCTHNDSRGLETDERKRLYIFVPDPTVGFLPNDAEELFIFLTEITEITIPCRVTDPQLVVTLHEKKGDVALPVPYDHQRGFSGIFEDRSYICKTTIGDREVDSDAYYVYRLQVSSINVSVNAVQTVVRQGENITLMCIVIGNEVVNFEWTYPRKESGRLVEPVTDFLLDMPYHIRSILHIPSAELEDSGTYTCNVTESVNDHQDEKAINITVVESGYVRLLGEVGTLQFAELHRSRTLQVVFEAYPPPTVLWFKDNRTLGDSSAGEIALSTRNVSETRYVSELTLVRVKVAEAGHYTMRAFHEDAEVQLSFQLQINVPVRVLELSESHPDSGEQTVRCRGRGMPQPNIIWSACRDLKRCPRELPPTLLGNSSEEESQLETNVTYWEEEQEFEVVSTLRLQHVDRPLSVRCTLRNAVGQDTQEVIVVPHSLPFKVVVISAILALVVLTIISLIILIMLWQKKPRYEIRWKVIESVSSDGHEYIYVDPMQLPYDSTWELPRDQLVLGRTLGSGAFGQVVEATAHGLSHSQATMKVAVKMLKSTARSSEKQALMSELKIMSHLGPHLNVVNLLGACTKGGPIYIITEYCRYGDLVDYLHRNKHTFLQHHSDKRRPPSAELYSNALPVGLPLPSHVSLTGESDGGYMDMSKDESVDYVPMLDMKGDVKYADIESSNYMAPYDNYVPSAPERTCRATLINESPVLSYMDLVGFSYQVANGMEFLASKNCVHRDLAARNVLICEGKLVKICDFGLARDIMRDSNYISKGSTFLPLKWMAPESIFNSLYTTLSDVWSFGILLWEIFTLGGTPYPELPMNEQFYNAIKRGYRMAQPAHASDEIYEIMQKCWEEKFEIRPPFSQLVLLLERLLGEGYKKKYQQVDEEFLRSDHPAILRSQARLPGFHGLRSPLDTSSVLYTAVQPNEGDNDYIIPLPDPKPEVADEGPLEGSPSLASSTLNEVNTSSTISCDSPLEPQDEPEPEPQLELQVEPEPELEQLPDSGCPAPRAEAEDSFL

Sequence of α-type PDGF-R (P16234 24-1089): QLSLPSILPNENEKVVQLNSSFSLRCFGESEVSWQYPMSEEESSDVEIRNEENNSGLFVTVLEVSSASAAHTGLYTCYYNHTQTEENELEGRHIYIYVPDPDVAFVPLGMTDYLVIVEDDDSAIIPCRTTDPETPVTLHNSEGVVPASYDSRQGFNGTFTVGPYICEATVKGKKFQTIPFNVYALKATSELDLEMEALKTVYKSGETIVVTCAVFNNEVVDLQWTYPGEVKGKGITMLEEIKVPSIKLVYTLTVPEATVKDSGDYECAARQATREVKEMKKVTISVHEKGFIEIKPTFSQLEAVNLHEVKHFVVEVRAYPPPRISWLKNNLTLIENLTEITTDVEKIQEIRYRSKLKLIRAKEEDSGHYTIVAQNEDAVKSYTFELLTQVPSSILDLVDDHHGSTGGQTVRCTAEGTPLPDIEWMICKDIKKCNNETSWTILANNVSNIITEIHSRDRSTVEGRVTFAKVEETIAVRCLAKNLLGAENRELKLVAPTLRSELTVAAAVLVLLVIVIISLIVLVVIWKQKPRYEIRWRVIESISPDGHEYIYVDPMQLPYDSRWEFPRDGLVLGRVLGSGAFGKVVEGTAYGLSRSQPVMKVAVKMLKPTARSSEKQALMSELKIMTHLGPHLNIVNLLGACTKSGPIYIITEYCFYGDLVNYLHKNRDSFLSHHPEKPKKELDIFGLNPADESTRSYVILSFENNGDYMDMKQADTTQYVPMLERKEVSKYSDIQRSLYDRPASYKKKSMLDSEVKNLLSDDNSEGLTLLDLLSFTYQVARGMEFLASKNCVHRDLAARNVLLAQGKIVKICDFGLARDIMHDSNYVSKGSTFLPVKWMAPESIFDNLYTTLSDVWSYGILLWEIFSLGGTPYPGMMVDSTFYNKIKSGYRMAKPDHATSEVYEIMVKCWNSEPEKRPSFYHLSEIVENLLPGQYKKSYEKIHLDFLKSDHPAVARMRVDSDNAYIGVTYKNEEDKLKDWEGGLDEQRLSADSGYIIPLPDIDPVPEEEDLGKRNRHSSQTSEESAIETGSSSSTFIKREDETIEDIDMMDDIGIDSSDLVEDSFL

Compound: FFHPV (printed: PHE PHE HIS PRO VAL) [pentapeptide PHE PHE HIS PRO VAL, from Bachem]
- growth inhibition in the initial screen of the library (NIH3T3-PDGF-ββ cells): inhibiting growth
- inhibition compared to the base medium (BITS) (NIH3T3-PDGF-ββ cells; 6 mM peptide): 14%
- inhibition compared to the base medium (BITS) (NIH3T3-PDGF-ββ cells; 9.5 mM peptide): 82%
- % of control cell growth (NIH3T3-PDGF-ββ cells; Table 2, 1 mM peptide): 116%
- % of control cell growth (NIH3T3-PDGF-ββ cells; Table 2, 3 mM peptide): 111%
- % of control cell growth (NIH3T3-PDGF-ββ cells; Table 2, 6 mM peptide): 85%
- % of control cell growth (NIH3T3-PDGF-ββ cells; Table 2, 9.5 mM peptide): 16%

Compound: FFFKK (printed: PHE PHE PHE LYS LYS) [pentapeptide PHE PHE PHE LYS LYS, from Bachem]
- growth inhibition in the initial screen of the library (NIH3T3-PDGF-ββ cells): inhibiting growth
- inhibition compared to the base medium (BITS) (NIH3T3-PDGF-ββ cells; 6 mM peptide): 29%
- inhibition compared to the base medium (BITS) (NIH3T3-PDGF-ββ cells; 12 mM peptide): 82%
- % of control cell growth (NIH3T3-PDGF-ββ cells; Table 2, 1 mM peptide): 111%
- % of control cell growth (NIH3T3-PDGF-ββ cells; Table 2, 3 mM peptide): 103%
- % of control cell growth (NIH3T3-PDGF-ββ cells; Table 2, 6 mM peptide): 69%
- % of control cell growth (NIH3T3-PDGF-ββ cells; Table 2, 12 mM peptide): 18%

Compound: DDEEK (printed: ASP ASP GLU GLU LYS) [pentapeptide ASP ASP GLU GLU LYS, from Bachem]
- growth inhibition in the initial screen of the library (NIH3T3-PDGF-ββ cells): inhibiting growth
- relative potency in inhibiting cell growth (NIH3T3-PDGF-ββ cells; 6 mM): most potent inhibitor
- inhibition compared to the base medium (BITS) (NIH3T3-PDGF-ββ cells; 6 mM peptide): 91%
- inhibition compared to the base medium (BITS) (NIH3T3-PDGF-ββ cells; 12 mM peptide): 84%
- % of control cell growth (NIH3T3-PDGF-ββ cells; Table 2, 1 mM peptide): 108%
- % of control cell growth (NIH3T3-PDGF-ββ cells; Table 2, 3 mM peptide): 93%
- % of control cell growth (NIH3T3-PDGF-ββ cells; Table 2, 6 mM peptide): 11%
- % of control cell growth (NIH3T3-PDGF-ββ cells; Table 2, 12 mM peptide): 16%

Compound: NCCCC[C@H](NC(=O)[C@H](CCCCN)NC(=O)[C@H](CCCCN)NC(=O)[C@@H](N)CCCCN)C(=O)O [KKKK] (H-KKKK-OH)
- inhibition of cell growth compared to control medium (BITS) (NIH3T3-PDGF-ββ cells; Example 3, KKKK (Bachem) 3 mM): 21%
- inhibition of cell growth compared to control medium (BITS) (NIH3T3-PDGF-ββ cells; Example 3, KKKK (Bachem) 6 mM): 36%
- inhibition compared to the base medium (BITS) (NIH3T3-PDGF-ββ cells; 6 mM peptide): 59%
- inhibition compared to the base medium (BITS) (NIH3T3-PDGF-ββ cells; 12 mM peptide): 82%
- % of control cell growth (NIH3T3-PDGF-ββ cells; Table 1, KKKK (Bachem) 3 mM): 78%
- % of control cell growth (NIH3T3-PDGF-ββ cells; Table 1, KKKK (Bachem) 6 mM): 65%
- % of control cell growth (NIH3T3-PDGF-ββ cells; Table 1, KKKK (Bachem) 12 mM): 39%
- % of control cell growth (NIH3T3-PDGF-ββ cells; Table 2, 1 mM peptide): 105%
- % of control cell growth (NIH3T3-PDGF-ββ cells; Table 2, 3 mM peptide): 72%
- % of control cell growth (NIH3T3-PDGF-ββ cells; Table 2, 6 mM peptide): 41%
- % of control cell growth (NIH3T3-PDGF-ββ cells; Table 2, 12 mM peptide): 17%

Compound: Cc1ccc(C(=O)Nc2ccc(S(=O)(=O)O)c3cc(S(=O)(=O)O)cc(S(=O)(=O)O)c23)cc1NC(=O)c1cccc(NC(=O)Nc2cccc(C(=O)Nc3cc(C(=O)Nc4ccc(S(=O)(=O)O)c5cc(S(=O)(=O)O)cc(S(=O)(=O)O)c45)ccc3C)c2)c1 [suramin]
- inhibition of PDGF binding to PDGF R (PDGF-R): 100%

Compound: KLMSY (printed: LYS LEU MET SER TYR) [pentapeptide LYS LEU MET SER TYR, from Bachem]
- growth inhibition in the initial screen of the library (NIH3T3-PDGF-ββ cells): inhibiting growth
- inhibition compared to the base medium (BITS) (NIH3T3-PDGF-ββ cells; 6 mM peptide): 23%
- inhibition compared to the base medium (BITS) (NIH3T3-PDGF-ββ cells; 12 mM peptide): 91%
- % of control cell growth (NIH3T3-PDGF-ββ cells; Table 2, 1 mM peptide): 127%
- % of control cell growth (NIH3T3-PDGF-ββ cells; Table 2, 3 mM peptide): 126%
- % of control cell growth (NIH3T3-PDGF-ββ cells; Table 2, 6 mM peptide): 76%
- % of control cell growth (NIH3T3-PDGF-ββ cells; Table 2, 12 mM peptide): 10%

Compound: neomycin
- inhibition of binding of PDGF-ββ to the α-type PDGF-R (α-type PDGF-R): inhibited
- inhibition of binding to the PDGF β receptor (PDGF β receptor): not able to inhibit
